Ends that are not written are not given here. * marks the point of attachment. Biotin = O=C1N[C@H]2[C@H](CS[C@H]2CCCCC(=O)*)N1
Tests used:
[1] = tested on: mAb cell lines P3X63/Ag8, F39F, 7B2, 13H11; conditions: flow cytometry, all Ig+ cell lines tested
Description: (§1) Use of antibody-coated beads and cell lines for tetramer quality control. Tetramer stocks were diluted to twice the desired final concentration in PBS containing 1% BSA. An equal volume of beads or cells at 5×10^5 up to 2×10^6 per sample were mixed with tetramer and incubated (4° C.×30 min). Beads or cells were washed with PBS+1% BSA before being fixed in 2% methanol-free formaldehyde (Polysciences, Inc, Warrington, Pa.) in PBS. Samples were stored at 4° C. prior to being analyzed by flow cytometry (BD LSR II, Becton Dickinson, Mountain View, Calif.). Data were analyzed using FlowJo (Tree Star, Ashland, Oreg.). For tetramer titration 40-80 ng tetramer per 10^6 cells/beads was serially diluted over 8-12 points. Optimal concentrations determined by this method were used for subsequent experiments. For cold competition experiments the incubation step was performed by staining with 10-fold excess unlabeled tetramer (4° C.×30 min) prior to the addition of APC-labeled tetramer. For cell dilution experiments, a mixture of mAb cell lines was made and then 1:10 serial dilutions of cells prepared. For cross competition experiments, mixtures of cells were prepared and then stained singly with anti-IgG reagents or tetramer, or the cells were doubly stained with both reagents either sequentially or concurrently.

[2] = tested on: antibody coated beads (P3X63/Ag8, A32, 7B9, F39F, 7B2, 13H11, 2F5); conditions: flow cytometry, all antibody coated beads tested
Description: (§2) Antibody-coated beads. Carboxyl-polystyrene beads (3.0-3.4 μm) (Spherotech, Inc., Lake Forest, Ill.) were resuspended in 0.01 M sodium acetate buffer (pH 5.0) and reacted (20° C.×1 hr) with 1-ethyl-3-(3-dimethylaminopropyl) carbodiimide hydrochloride (EDC) (Sigma-Aldrich, Co., St. Louis, Mo.) at a ratio of 3.1 mg beads to 1 mg EDC. Beads were washed with sodium acetate buffer, resuspended in a minimal volume before adding purified mAb in the same buffer (ratio of 16 mg beads to 1 mg mAb), incubated (20° C.×2 hrs), then washed with sodium acetate buffer. Beads were resuspended at 5% in PBS containing 1% bovine serum albumin and 0.02% sodium azide.
as §1

[3] = tested on: total naïve splenic BALB/c B cells; conditions: APC-labeled tetramer
Description: (§3) Cell isolation, serum collection, and PBMC isolations. Heparinized or non-heparanized blood was collected sub-mandibularly 10 days after immunizations. For preparation of peripheral blood lymphocytes for B cell tetramer analysis, PBMC were isolated from blood collected in heparinized tubes (0.2 ml) using Lympholyte M (Cederlane). For Luminex and ELISA assays, sera was isolated from non-heparanized blood and stored at −20° C. until use. Spleen, bone marrow (BM), and peritoneal cavity (PerC) cells were also collected. For most immunizations, tissues were harvested after the 4th boost, except for kinetic studies, in which tissues from mice were harvested after 1, 3 or 7 days after a single immunization. For BM preparations, femora and tibiae were removed, aspirated with tissue medium using 23 gauge needles, filtered with 70 μm cell strainers (BD labware), and RBC-depleted using Tris-buffered ammonium chloride lysis. For splenocyte preparation, spleens were harvested and dissociated into single-cell suspensions either by passage through 70 μm cell strainers in tissue medium or by using frosted glass slides, and blood erythrocytes were depleted with ammonium chloride lysis. For isolation of peritoneal cells, peritoneal cavities of sacrificed mice were lavaged by injection with 10 ml of PBS, followed by gentle massage of the abdomen, and withdrawal of the peritoneal exudates. BM, splenic, and peritoneal single cell suspensions were centrifuged at 1500 rpm for 5 min and resuspended in 5, 10, and 1 ml of tissue media, respectively, for cell counts and immunofluorescence staining. Cell counts were performed in duplicate on a Coulter ZI Dual Threshold Cell Counter (Coulter).
(§4) Antibodies and flow cytometry. Immunofluorescent staining of single cell suspensions (≧2×10^6) was conducted using pre-mixed combinations of fluorochrome-labeled antibodies and APC-conjugated B cell tetramers at empirically-determined optimal concentrations. All antibodies were from BD unless otherwise stated. […] Other reagents included biotinylated antibodies against dump channel markers: Thy1 (Ox7; Abcam), F4/80 (BM8; Abcam), CD11c (clone HL3), Gr-1 (clone RB6-8C5), TER-119, and NK-1.1 (clone PK136), secondary staining SA-Texas Red conjugate; v-amine live/dead violet dye (Molecular Probes), and Fc block (anti-CD16/32; clone 2.4G2).
(§5) Staining was conducted at 4° C. in several sequential steps in FACS staining buffer (1×PBS with 2% FCS, 0.1% NaN3), washing twice between steps. First, cells were incubated with v-amine live/dead dye for 15 min. Next, cells were stained with APC-labeled tetramers for 30 min. Where applicable, this was preceded by addition of cold tetramer at 10 fold molar excess for 1 h. Finally, cells were stained with Fc block for 30 min, followed by incubation with combinations of primary antibody cocktails for 30 min, and secondary staining with SA-Texas Red for 30 min.
(§6) Data were acquired using an LSRII flow cytometer and Cell Quest software (BD Immunocytometry systems). A minimum of 250000 events were acquired per sample. FACS Analysis was performed using FlowJo software (Tree Star). For analysis, single cells were positively gated based on their forward scatter height vs. forward scatter area and side scatter height vs. side scatter area profiles, lymphocytes were then positively gated based on their forward and side scatter profile (live lymphocyte gate), residual dead cells were excluded with negative gating on v-amine live/dead dye, and all irrelevant non-B cells were excluded with negative gating on dump markers Thy1, F4/80, CD11c, Gr-1, TER-119, and NK-1.1.

[4] = tested on: F39F cells; conditions: flow cytometry
Description: as §1

[5] = tested on: mixture of F39F cells and P3X63/Ag8 cells; conditions: 6% F39F cells, 94% P3X63/Ag8 cells; sequential or simultaneous staining
Description: as §1

[6] = tested on: V3 loop mAbs 7B9 and F39F on beads; conditions: flow cytometry
Description: as §2, §1

[7] = tested on: mAb 7B9 (anti-gp120 V3 62.19); conditions: SPR, mAb 7B9 captured
[8] = tested on: total naïve splenic C57BL/6 B cells; conditions: C57BL/6, APC-labeled tetramer
Description: as §3, §4, §5, §6

[9] = tested on: mAb F39F (anti-gp120 V3); conditions: SPR, mAb F39F captured, 25° C., PBS pH 7.4
Description: Surface Plasmon Resonance (SPR) measurements of tetramer binding to peptide epitopes. Tetramer binding assays were carried out on a BIAcore 3000 (BIAcore/GE Healthcare, Piscataway, N.J.) instrument using mAbs against each specific B cell epitope.
Each mAb (about 1000 RU) was first captured on anti-human Fc mAb (Pierce, Rockford, Ill.) immobilized on a CM5 sensor chip. Approximately 3000 RU of anti-human Fc mAb was covalently coupled to each flow cell of the sensor chip as described before (Alam et al, Journal of Immunology 178:4424-4435 (2007)). Each B cell tetramer was injected over its epitope specific mAb or a control surface immobilized with irrelevant mAb. For each tetramer binding curve, non-specific binding signals obtained from the control surface were subtracted. The binding assay was monitored at 25° C. and using PBS, pH 7.4, as the running buffer. The BIAevaluation 3.0 software (BIAcore/GE Healthcare, Piscataway, N.J.) was used for SPR binding data analyses.

[10] = gp41 HR2 peptide immunization, serum anti-2F5 epitope Ab ELISA, BALB/c; assay type: in vivo, BALB/c mice; conditions: peptide in Emulsigen + oCpG, i.p., ELISA 10 days after each immunization
Description: (§7) Peptide immunogen formulation, dose, route of immunization, and immunization schedule. The peptide immunogen used was a gp41 heptad repeat-2 (HR2) DP 1 78Q16L peptide ([…]), synthesized and purified from Primm, and verified to be >95% purified as determined by mass spectrometry. Lyophilized peptide immunogens stored at 4° C. (Primm Biotechnology) were reconstituted by dissolving in DMSO at 8 mg/ml and bringing up to 1 mg/ml in saline. Adjuvanting was done by dissolving mouse oCpG, (5′-[…]-3′; Midland Certified Reagent Company) in saline at 1 mg/ml and first mixing with Oil/water Emulsigen (MVP laboratories) in saline, then with peptide, such as to create a final mixture of 50 μg/ml oCpG, 125 μg/ml peptide, 10% Emulsigen (for i.p. immunizations) and 200 μg/ml oCpG, 500 μg/ml peptide, 10% Emulsigen (for i.m. immunizations). Immunization primes and boosts were all done at a single site intraperitoneally using a volume of 200 μl of the above formulation, such that mice in all instances were injected with 25 μg peptide and 10 μg oCpG. Mice were primed for 10 days and then boosted four times, every 14 days.
(§8) Cell isolation, serum collection, and PBMC isolations.
(§9) ELISA assays. […] Optical density was read at 405 nm with a BioRad 680 microplate reader. […]

[11] = gp41 HR2 peptide immunization, serum anti-2F5 epitope Ab ELISA, C57BL/6; assay type: in vivo, C57BL/6 mice; conditions: C57BL/6, peptide in Emulsigen + oCpG, i.p., ELISA 10 days after each immunization
Description: as §7, §8, §9

Row | Substance | binding to mAb cell lines [1] | binding to any antibody on beads [2] | binding to total naïve splenic B cells [3] | binding to mAb cell line [4] | effect of PE labeled anti-IgG heavy chain reagent on tetramer binding [5] | binding to antibody-coated beads [6] | koff [7] [s^−1 × 10^−3] | kon [7] [M^−1s^−1 × 10^3] | binding to total naïve splenic B cells [8] | koff [9] [s^−1 × 10^−3] | kon [9] [M^−1s^−1 × 10^3] | anti-2F5 serum Ab response [10] | anti-2F5 serum Ab titers [11]
1 | Biotin-GGGGGDWEYSVWLSN [dsDNA mimic tetramer] | no cell line bound | did not bind | no significant binding above background | – | – | – | – | – | – | – | – | – | –
2 | Biotin-GGGTRPNNNTRKSIHIGPGRAFYATE [62.19 V3 tetramer] | – | – | minimal binding | bound | does not inhibit | bound to both V3 loop mAbs 7B9 and F39F | 0.19 | 35.6 | minimal binding | 0.60 | 60.5 | – | –
3 | enfuvirtide | – | – | – | – | – | – | – | – | – | – | – | robust anti-2F5 serum Ab responses | no appreciable anti-2F5 serum Ab titers
